Experimental findings from patent publication US20250179078A1, “INHIBITORS OF NLRP3” (PTC THERAPEUTICS, INC., priority 2022, published 2025) are described below.

Each structure is given as a SMILES string. Bounds are passed on as bounds.

This test deals with T1, NLRP3 (Homo sapiens, UniProt Q96P20).
T1 construct: host or cells: THP-1 cells differentiated with PMA
Briefly: IL-1β Secretion Assay (NLRP3-dependent IL1β secretion in THP1 cells). The conditions noted are these: PMA-differentiated THP-1 cells; compounds incubated 20 h; 2.5 μM Nigericin 3 h; HTRF IL-1β readout; read-out: IC50 IL-1β Inhibition. Type of test: cell-based. The method in brief: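 THP-1 cells differentiated with 100 ng/mL PMA for 24 h, then given compound (7-point 3-fold series, 1:200 from DMSO) for 20 h in RPMI+5% FBS. NLRP3 activated with 2.5 μM nigericin for 3 h; secreted IL-1β measured by HTRF; IC50 from logistic fit of % inhibition.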
For orientation: TR-FRET usually uses a lanthanide donor and a delayed reading to cut background.

T1 sequence (Q96P20 whole entry): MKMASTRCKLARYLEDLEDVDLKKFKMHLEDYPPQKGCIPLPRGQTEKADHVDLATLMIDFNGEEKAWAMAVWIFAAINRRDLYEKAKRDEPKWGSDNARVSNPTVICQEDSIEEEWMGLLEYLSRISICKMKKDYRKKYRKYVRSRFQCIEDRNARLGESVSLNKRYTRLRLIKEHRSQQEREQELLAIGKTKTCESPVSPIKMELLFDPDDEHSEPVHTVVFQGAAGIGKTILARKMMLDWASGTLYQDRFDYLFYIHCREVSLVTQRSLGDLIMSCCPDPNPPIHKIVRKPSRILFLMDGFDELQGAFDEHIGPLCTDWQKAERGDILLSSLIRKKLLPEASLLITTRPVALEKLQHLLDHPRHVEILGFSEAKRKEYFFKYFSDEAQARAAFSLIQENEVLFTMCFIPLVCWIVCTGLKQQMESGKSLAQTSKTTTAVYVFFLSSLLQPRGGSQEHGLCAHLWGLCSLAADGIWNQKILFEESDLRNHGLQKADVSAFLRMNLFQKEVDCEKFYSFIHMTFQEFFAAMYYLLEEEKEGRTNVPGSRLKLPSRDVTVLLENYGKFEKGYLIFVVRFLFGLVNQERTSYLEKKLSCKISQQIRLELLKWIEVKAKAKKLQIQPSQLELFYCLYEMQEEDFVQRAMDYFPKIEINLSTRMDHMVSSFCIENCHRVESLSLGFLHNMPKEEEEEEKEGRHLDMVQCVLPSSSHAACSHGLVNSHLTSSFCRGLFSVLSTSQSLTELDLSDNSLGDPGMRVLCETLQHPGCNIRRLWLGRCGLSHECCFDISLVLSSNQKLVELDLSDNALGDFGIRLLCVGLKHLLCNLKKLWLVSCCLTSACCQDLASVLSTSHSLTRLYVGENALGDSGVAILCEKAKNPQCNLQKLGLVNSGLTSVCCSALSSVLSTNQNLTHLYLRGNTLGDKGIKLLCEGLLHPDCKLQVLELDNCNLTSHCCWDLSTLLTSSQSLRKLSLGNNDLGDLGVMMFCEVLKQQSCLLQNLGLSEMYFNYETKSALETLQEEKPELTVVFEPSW

As to `COc1ccc(-c2nnc(N[C@H]3C[C@@](C)(O)C3)n3cccc23)c(CC(F)(F)F)c1` [Compound 1, (1s,3s)-3-({1-[4-methoxy-2-(2,2,2-trifluoroethyl)phenyl]pyrrolo[1,2-d][1,2,4]triazin-4-yl}amino)-1-methylcyclobutan-1-ol], the IC50 was in the range of 1 to 10 nM.

`C[C@]1(O)C[C@@H](Nc2nnc(-c3ccc(C4CC4)cc3OC(F)(F)F)c3cncn23)C1` [Compound 346, (1s,3s)-3-({1-[4-cyclopropyl-2-(trifluoromethoxy)phenyl]imidazo[1,5-d][1,2,4]triazin-4-yl}amino)-1-methylcyclobutan-1-ol]: the IC50 lay within 1 to 10 nM.

In the case of `COc1ccc(-c2nnc(N[C@@H]3CCC[C@H](O)C3)n3cncc23)c(OC(F)(F)F)c1` [Compound 222, (1S,3R)-3-({1-[4-methoxy-2-(trifluoromethoxy)phenyl]imidazo[1,5-d][1,2,4]triazin-4-yl}amino)cyclohexan-1-ol], the IC50 lay in the range of 1 to 10 nM.

For `COc1ccc(-c2nnc(NC34CC(CO)(C3)C4)n3cccc23)c(OC(F)(F)F)c1` [Compound 94, [3-({1-[4-methoxy-2-(trifluoromethoxy)phenyl]pyrrolo[1,2-d][1,2,4]triazin-4-yl}amino)bicyclo[1.1.1]pentan-1-yl]methanol], the IC50 was 10 to 100 nM.

On to `CCN1CCC[C@@H](Nc2nnc(-c3ccc(OC)cc3C3CC3)c3cc(C)nn23)C1` [Compound 379, 4-(2-cyclopropyl-4-methoxyphenyl)-N-[(3R)-1-ethylpiperidin-3-yl]-2-methylpyrazolo[1,5-d][1,2,4]triazin-7-amine], for which the IC50 was 1 to 10 nM.

On to `COc1ccc(-c2nnc(Nc3cc[nH]n3)n3cncc23)c(C(F)(F)F)c1` [Compound 228, 1-[4-methoxy-2-(trifluoromethyl)phenyl]-N-(1H-pyrazol-3-yl)imidazo[1,5-d][1,2,4]triazin-4-amine], for which the IC50 lay in the range of 10 to 100 nM.

For the compound `OC[C@H]1C[C@@H](Nc2nnc(-c3ccc(C(F)(F)F)cc3CC(F)(F)F)c3cncn23)C1` [Compound 264], the IC50 was < 1 nM.

Regarding `COc1ccc(-c2nnc(N[C@H]3C[C@@](C)(O)C3)n3cncc23)c(OCC(F)(F)F)c1` [Compound 305, (1s,3s)-3-({1-[4-methoxy-2-(2,2,2-trifluoroethoxy)phenyl]imidazo[1,5-d][1,2,4]triazin-4-yl}amino)-1-methylcyclobutan-1-ol], the IC50 is 10 to 100 nM.

Turning to `COc1ccc(-c2nnc(N[C@H]3C[C@@H](CO)C3)n3cncc23)c(CC(F)(F)F)c1` [Compound 314, [(1s,3s)-3-({1-[4-methoxy-2-(2,2,2-trifluoroethyl)phenyl]imidazo[1,5-d][1,2,4]triazin-4-yl}amino)cyclobutyl]methanol], the IC50 was in the range of 1 to 10 nM.

In the case of `CC(Nc1nnc(-c2ccc(C(F)(F)F)cc2OC(F)(F)F)c2cncn12)c1cccc(O)c1` (centres unmarked) [Compound 323, 3-[1-({1-[2-(trifluoromethoxy)-4-(trifluoromethyl)phenyl]imidazo[1,5-d][1,2,4]triazin-4-yl}amino)ethyl]phenol], the IC50 was in the range of 1 to 10 nM.

For `CN1CCC[C@H](CNc2nnc(-c3ccc(C(F)(F)F)cc3CC(F)(F)F)c3cccn23)C1` [Compound 147, N-{[(3R)-1-methylpiperidin-3-yl]methyl}-1-[2-(2,2,2-trifluoroethyl)-4-(trifluoromethyl)phenyl]pyrrolo[1,2-d][1,2,4]triazin-4-amine], the IC50 lay in the range of 1 to 10 nM.

Take `Cc1ccc(-c2nnc(N[C@@H]3CCCC[C@@H]3O)n3cccc23)c(OC(F)F)c1` [Compound 137, (1S,2R)-2-({1-[2-(difluoromethoxy)-4-methylphenyl]pyrrolo[1,2-d][1,2,4]triazin-4-yl}amino)cyclohexan-1-ol]: the IC50 was in the range of 1 to 10 nM.

Turning to `COc1ccc(-c2nnc(NC(C)c3cccnc3)n3cncc23)c(OC(F)(F)F)c1` (single isomer, unassigned) [Compound 308], the IC50 lay within 100 to 300 nM.

As for `COc1ccc(-c2nnc(N[C@H]3C[C@@](C)(O)C3)n3cccc23)c(C2CC2)c1` [Compound 104, (1s,3s)-3-{[1-(2-cyclopropyl-4-methoxyphenyl)pyrrolo[1,2-d][1,2,4]triazin-4-yl]amino}-1-methylcyclobutan-1-ol], the IC50 fell in the range of 10 to 100 nM.

With `C[C@]1(O)C[C@@H](Nc2nnc(-c3ccc(Cl)cc3OC(F)F)c3cncn23)C1` [Compound 194, (1s,3s)-3-({1-[4-chloro-2-(difluoromethoxy)phenyl]imidazo[1,5-d][1,2,4]triazin-4-yl}amino)-1-methylcyclobutan-1-ol], the IC50 was 1 to 10 nM.

Take `COc1ccc(-c2nnc(NC[C@@H]3CCCO3)n3cccc23)c(OC(F)(F)F)c1` [Compound 76, 1-[4-methoxy-2-(trifluoromethoxy)phenyl]-N-{[(2S)-oxolan-2-yl]methyl}pyrrolo[1,2-d][1,2,4]triazin-4-amine]: the IC50 lay within 10 to 100 nM.

As to `CC(Nc1nnc(-c2ccc(C(F)(F)F)cc2OC(F)F)c2cccn12)c1cccc(O)c1` (centres unmarked) [Compound 89, 3-[1-({1-[2-(difluoromethoxy)-4-(trifluoromethyl)phenyl]pyrrolo[1,2-d][1,2,4]triazin-4-yl}amino)ethyl]phenol], the IC50 lay in the range of 1 to 10 nM.

Regarding `O[C@H]1CCC[C@@H](Nc2nnc(-c3ccc(C(F)(F)F)cc3OC(F)(F)F)c3cncn23)C1` [Compound 240, (1S,3R)-3-({1-[2-(trifluoromethoxy)-4-(trifluoromethyl)phenyl]imidazo[1,5-d][1,2,4]triazin-4-yl}amino)cyclohexan-1-ol], the IC50 is < 1 nM.

As for `Cc1ccc(-c2nnc(N[C@H]3C[C@@](C)(O)C3)n3cccc23)c(CC(F)(F)F)c1` [Compound 158, (1s,3s)-1-methyl-3-({1-[4-methyl-2-(2,2,2-trifluoroethyl)phenyl]pyrrolo[1,2-d][1,2,4]triazin-4-yl}amino)cyclobutan-1-ol], the IC50 lay in the range of 1 to 10 nM.

Consider `O[C@H]1CCCC[C@@H]1Nc1nnc(-c2ccc(C(F)(F)F)cc2C(F)(F)F)c2cccn12` [Compound 99, (1S,2S)-2-({1-[2,4-bis(trifluoromethyl)phenyl]pyrrolo[1,2-d][1,2,4]triazin-4-yl}amino)cyclohexan-1-ol], for which the IC50 is 100 to 300 nM.

In the case of `CCN1CCC[C@@H](Nc2nnc(-c3ccc(C(F)(F)F)cc3OCF)c3cccn23)C1` [Compound 169, N-[(3R)-1-ethylpiperidin-3-yl]-1-[2-(fluoromethoxy)-4-(trifluoromethyl)phenyl]pyrrolo[1,2-d][1,2,4]triazin-4-amine], the IC50 is < 1 nM.

`O=C1NCCCC1Nc1nnc(-c2ccc(C(F)(F)F)cc2C(F)(F)F)c2cncn12` (centres unmarked) [Compound 276, 3-({1-[2,4-bis(trifluoromethyl)phenyl]imidazo[1,5-d][1,2,4]triazin-4-yl}amino)piperidin-2-one]: the IC50 fell in the range of 10 to 100 nM.

Regarding `Cc1ccc(-c2nnc(N[C@H]3C[C@@](C)(O)C3)n3cncc23)c(OC(F)F)c1` [Compound 344, (1s,3s)-3-({1-[2-(difluoromethoxy)-4-methylphenyl]imidazo[1,5-d][1,2,4]triazin-4-yl}amino)-1-methylcyclobutan-1-ol], the IC50 lay within 10 to 100 nM.

`O=C1NCCC1Nc1nnc(-c2ccc(C(F)(F)F)cc2CC(F)(F)F)c2cccn12` (centres unmarked) [Compound 77, 3-({1-[2-(2,2,2-trifluoroethyl)-4-(trifluoromethyl)phenyl]pyrrolo[1,2-d][1,2,4]triazin-4-yl}amino)pyrrolidin-2-one]: the IC50 fell in the range of 1 to 10 nM.

Regarding `COc1ccc(-c2nnc(NCc3ncnn3C)n3cccc23)c(OC(F)(F)F)c1` [Compound 93, 1-[4-methoxy-2-(trifluoromethoxy)phenyl]-N-[(1-methyl-1H-1,2,4-triazol-5-yl)methyl]pyrrolo[1,2-d][1,2,4]triazin-4-amine], the IC50 was 10 to 100 nM.

`COc1ccc(-c2nnc(N[C@@H]3CCOC3)n3cccc23)c(OC(F)(F)F)c1` [Compound 68, 1-[4-methoxy-2-(trifluoromethoxy)phenyl]-N-[(3R)-oxolan-3-yl]pyrrolo[1,2-d][1,2,4]triazin-4-amine]: the IC50 is 10 to 100 nM.

On to `O[C@H]1CCC[C@@H](Nc2nnc(-c3ccc(OC(F)F)cc3OC(F)(F)F)c3cccn23)C1` [Compound 153, (1S,3R)-3-({1-[4-(difluoromethoxy)-2-(trifluoromethoxy)phenyl]pyrrolo[1,2-d][1,2,4]triazin-4-yl}amino)cyclohexan-1-ol], for which the IC50 was 1 to 10 nM.

Turning to `COc1ccc(-c2nnc(N[C@@H]3CCC[C@H](O)C3)n3cccc23)c(OC(F)(F)F)c1` [Compound 62, (1S,3R)-3-({1-[4-methoxy-2-(trifluoromethoxy)phenyl]pyrrolo[1,2-d][1,2,4]triazin-4-yl}amino)cyclohexan-1-ol], the IC50 lay in the range of 10 to 100 nM.

Consider `COc1ccc(-c2nnc(N[C@H]3C[C@@](C)(O)C3)n3ccc(F)c23)c(OC(F)(F)F)c1` [Compound 54, (1s,3s)-3-({8-fluoro-1-[4-methoxy-2-(trifluoromethoxy)phenyl]pyrrolo[1,2-d][1,2,4]triazin-4-yl}amino)-1-methylcyclobutan-1-ol], for which the concentration for half-maximal inhibition (IC50) was in the range of 10 to 100 nM.

With `COc1ccc(-c2nnc(Nc3cc[nH]n3)n3cncc23)c(OC(F)(F)F)c1` [Compound 220, 1-[4-methoxy-2-(trifluoromethoxy)phenyl]-N-(1H-pyrazol-3-yl)imidazo[1,5-d][1,2,4]triazin-4-amine], the IC50 is 100 to 300 nM.

For the compound `O[C@H]1CCC[C@@H](Nc2nnc(-c3ccc(OC(F)F)cc3OC(F)(F)F)c3cncn23)C1` [Compound 245, (1S,3R)-3-({1-[4-(difluoromethoxy)-2-(trifluoromethoxy)phenyl]imidazo[1,5-d][1,2,4]triazin-4-yl}amino)cyclohexan-1-ol], the IC50 lay in the range of 1 to 10 nM.

Turning to `C[C@]1(O)C[C@@H](Nc2nnc(-c3ccc(OC(F)F)cc3OC(F)(F)F)c3cccn23)C1` [Compound 88, (1s,3s)-3-({1-[4-(difluoromethoxy)-2-(trifluoromethoxy)phenyl]pyrrolo[1,2-d][1,2,4]triazin-4-yl}amino)-1-methylcyclobutan-1-ol], the IC50 lay in the range of 1 to 10 nM.

By IC50 is commonly meant the concentration at which inhibition is half-maximal.
